# Patent publication US3963707A, “Novel N-nitroso compounds, compositions containing such compounds, processes for their preparation and methods of treatment therewith, and novel intermediates” (Aktiebolaget Leo, priority 1973, dated 1976)
# System: Hepatoma AH 130
# Experiment: in vivo
# Set-up: species or system SPF Wistar rats
# Conditions: additional compounds, result in words
# Source text: The high activity against tumours is further illustrated in these experiments by comparisons with known antitumour agents used in the therapy. The therapeutic indexes (T.I.), i.e. the ratios LD50/ED50, are in all comparisons much more favourable with the compounds of the present invention.
# LD50 is the dose that caused a 50 percent lethality of the animals, ED50 is the dose that caused a 50 percent reduction of tumour size.
# The experimental design and the interpretation of the results have been in accordance with the standards set by the CCNSC (Cancer Chemotherapy Reports, January 1959 and December 1962), and by the DR&D (Cancer Chemotherapy Reports, September 1972, Vol. 3, No. 2).
# The way of administration is by the intraperitoneal route (i.p.) in each case.
# Experimental animals: SPF Wistar rats.
# Tumour implant: 5 × 10^6 tumour cells i.p.
# Therapy: One injection i.p. on the day following implantation.
# Termination: The animals are killed on the 8th day.
# Evaluation: Weights of tumours of test animals compared with those of control animals.
row,SMILES,anti-tumor activity
1,COc1ccc2c(c1)CC[C@@H]1[C@@H]2CC[C@]2(C)[C@@H](OC(=O)N(C)C(=O)N(CCCl)N=O)CC[C@@H]12 [estradiol-3-methylether-17β-/N^2-methyl-N^4-(2-chloroethyl)-N^4-nitroso allophanate],exhibit anti-tumor activity
2,COc1ccc2c(c1)CC[C@@H]1[C@@H]2CC[C@]2(C)[C@@H](OC(=O)N(C(=O)N(CCCl)N=O)c3ccccc3)CC[C@@H]12 [estradiol-3-methylether-17β-/N^2-phenyl-N^4-(2-chloroethyl)-N^4-nitroso allophanate/],exhibit anti-tumor activity
3,COc1ccc2c(c1)CC[C@@H]1[C@@H]2CC[C@]2(C)[C@@H](OC(=O)NC(=O)N(CCCl)N=O)CC[C@@H]12 [estradiol-3-methylether-17β-/N^4-(2-chloroethyl)-N^4-nitroso allophanate/],exhibit anti-tumor activity
4,CC(=O)O[C@H]1CC[C@H]2[C@@H]3CCc4cc(OC(=O)N(C)C(=O)N(CCCl)N=O)ccc4[C@H]3CC[C@]12C [estradiol-17β-acetate-3-/N^2-methyl-N^ 4-(2-chloroethyl)-N^4-nitroso allophanate/],exhibit anti-tumor activity
5,CC(=O)O[C@H]1CC[C@H]2[C@@H]3CCc4cc(OC(=O)N(CCF)N=O)ccc4[C@H]3CC[C@]12C [estradiol-17β-acetate-3-N-(2-fluoroethyl)-N-nitroso carbamate],exhibit anti-tumor activity
6,CCOP(=O)(O)O[C@H]1CC[C@H]2[C@@H]3CCc4cc(OC(=O)N(CCCl)N=O)ccc4[C@H]3CC[C@]12C [estradiol-17β-ethyl hydrogen phosphate-3-N-(2-chloroethyl)-N-nitroso carbamate],exhibit anti-tumor activity
7,C[C@]12CC[C@@H]3c4ccc(OC(=O)N(CCCl)N=O)cc4CC[C@H]3[C@@H]1CC[C@@H]2OP(=O)(O)Oc1ccccc1 [estradiol-17β-phenyl hydrogen phosphate-3-N-(2-chloroethyl)-N-nitroso carbamate],exhibit anti-tumor activity
8,CCCCC(=O)O[C@H]1CC[C@H]2[C@@H]3CCc4cc(OC(=O)N(CCCl)N=O)ccc4[C@H]3CC[C@]12C [estradiol-17β-valerate-3-N-(2-chloroethyl)-N-nitroso carbamate],exhibit anti-tumor activity
9,CC1CCC(N(C(=O)Oc2ccc3c(c2)CC[C@@H]2[C@@H]3CC[C@]3(C)C(=O)CC[C@@H]23)C(=O)N(CCCl)N=O)CC1 (stereo partly drawn) [estrone-3-/N^2-(4-methylcyclohexyl)-N^4-(2-chloroethyl)-N^4-nitroso allophanate/],exhibit anti-tumor activity
10,Cc1ccc(N(C(=O)Oc2ccc3c(c2)CC[C@@H]2[C@@H]3CC[C@]3(C)C(=O)CC[C@@H]23)C(=O)N(CCCl)N=O)cc1 [estrone-3-/N^2-(4-methylphenyl)-N^4-(2-chloroethyl)-N^4-nitroso allophanate/],exhibit anti-tumor activity
11,C#C[C@]1(OC(=O)N(CCCl)N=O)CC[C@H]2[C@@H]3CCC4=C[C@@H](OP(=O)(O)O)CC[C@@H]4[C@H]3CC[C@@]21C [ethynodiol-17β-N-(2-chloroethyl)-N-nitroso carbamate-3β-dihydrogen phosphate],exhibit anti-tumor activity
12,C#C[C@]1(OC(=O)N(CCCl)N=O)CC[C@H]2[C@@H]3CCC4=C[C@@H](OP(=O)(O)OCC)CC[C@@H]4[C@H]3CC[C@@]21C [ethynodiol-17β-N-(2-chloroethyl)-N-nitroso carbamate-3β-ethyl hydrogen phosphate],exhibit anti-tumor activity
13,C#C[C@]1(OC(=O)N(CCCl)N=O)CC[C@H]2[C@@H]3CCC4=C[C@@H](OC(=O)CCCCCC)CC[C@@H]4[C@H]3CC[C@@]21C [ethynodiol-17β-N-(2-chloroethyl)-N-nitroso carbamate-3β-oenanthate],exhibit anti-tumor activity
14,C#C[C@]1(OC(=O)N(CCCl)N=O)CC[C@H]2[C@@H]3CCC4=C[C@@H](OP(=O)(O)Oc5ccccc5)CC[C@@H]4[C@H]3CC[C@@]21C [ethynodiol-17β-N-(2-chloroethyl)-N-nitroso carbamate-3β-phenylhydrogen phosphate],exhibit anti-tumor activity
15,C#C[C@]1(OC(=O)N(CCCl)N=O)CC[C@H]2[C@@H]3CCC4=C[C@@H](OS(=O)(=O)O)CC[C@@H]4[C@H]3CC[C@@]21C [ethynodiol-17β-N-(2-chloroethyl)-N-nitroso carbamate-3β-sodium sulphate],exhibit anti-tumor activity
16,C#C[C@]1(OC(=O)N(CCCl)N=O)CC[C@H]2[C@@H]3CCC4=C[C@@H](O)CC[C@@H]4[C@H]3CC[C@@]21C [ethynodiol-17β-N-(2-chloroethyl)-N-nitroso carbamate],exhibit anti-tumor activity
17,C#C[C@]1(OC(C)=O)CC[C@H]2[C@@H]3CCC4=C[C@@H](OC(=O)N(C(=O)N(CCCl)N=O)C5CCC(C)CC5)CC[C@@H]4[C@H]3CC[C@@]21C (stereo partly drawn) [ethynodiol-17β-acetate-3β-/N^2-(4-methylcyclohexyl)-N^4-(2-chloroethyl)-N^4-nitroso allophanate/],exhibit anti-tumor activity
18,C#C[C@]1(OC(C)=O)CC[C@H]2[C@@H]3CCC4=C[C@@H](OC(=O)N(C)C(=O)N(CCCl)N=O)CC[C@@H]4[C@H]3CC[C@@]21C [ethynodiol-17β-acetate-3β-/N^2-methyl-N^4-(2-chloroethyl)-N^4-nitroso allophanate/],exhibit anti-tumor activity
19,C#C[C@]1(OC(C)=O)CC[C@H]2[C@@H]3CCC4=C[C@@H](OC(=O)N(CCCC)C(=O)N(CCCl)N=O)CC[C@@H]4[C@H]3CC[C@@]21C [ethynodiol-17β-acetate-3β-/N^2-n-butyl-N^4-(2-chloroethyl)-N^4-nitroso allophanate/],exhibit anti-tumor activity
20,C#C[C@]1(OC(C)=O)CC[C@H]2[C@@H]3CCC4=C[C@@H](OC(=O)N(C(=O)N(CCCl)N=O)c5ccccc5)CC[C@@H]4[C@H]3CC[C@@]21C [ethynodiol-17β-acetate-3β-/N^2-phenyl-N^4-(2-chloroethyl)-N-nitroso allophanate/],exhibit anti-tumor activity
21,C#C[C@]1(OC(C)=O)CC[C@H]2[C@@H]3CCC4=C[C@@H](OC(=O)NC(=O)N(CCCl)N=O)CC[C@@H]4[C@H]3CC[C@@]21C [ethynodiol-17β-acetate-3β-/N^4-(2-chloroethyl)-N^4-nitroso allophanate/],exhibit anti-tumor activity
22,C#C[C@]1(OC(C)=O)CC[C@H]2[C@@H]3CCC4=C[C@@H](OC(=O)N(CCF)N=O)CC[C@@H]4[C@H]3CC[C@@]21C [ethynodiol-17β-acetate-3β-N-(2-fluoroethyl)-N-nitroso carbamate],exhibit anti-tumor activity
23,C[C@]12CC[C@@H](OC(=O)N(CCF)N=O)C[C@H]1CC[C@@H]1[C@@H]2CC[C@]2(C)C(=O)CC[C@@H]12 [etiocholanolone-3α-N-(2-fluoroethyl)-N-nitroso carbamate],exhibit anti-tumor activity
24,C[C@]12C=CC(=O)C=C1CC[C@@H]1[C@@H]2[C@@H](OC(=O)N(CCCl)N=O)C[C@@]2(C)[C@H]1CC[C@]2(O)C(=O)COP(=O)(O)O [prednisolone-11β-/N-(2-chloroethyl)-N-nitroso carbamate/-21-dihydrogenphosphate],exhibit anti-tumor activity
